“And” between values parts separate entries of the source, which are not always exact repeats. Equal entries are not always repeated.
Biological target: T1, Na-K-ATPase (Bos taurus, UniProt Q08DA1)
T1 construct: 86Rb uptake
Assay: Microassay: inhibition of ^86 Rb uptake by MDBK cell cultures
Type: cell-based, bovine
Excerpt: Such a cell line is available from the American Type Culture Collection, 12301 Park Lawn Drive, Rockville, Md. 20852. USA, where it is identified by the reference ATCC CCL34 (certified cell line). The preferred method of assaying bioactivity according to the present invention, described in Example II below, employs a microassay which is based upon the ability of the natriuretic compound of the present invention to inhibit ^86 Rb influx by MDBK cells grown in culture. Ouabain (10^-5 M) is used as the reference inhibitor.
The natriuretic activity of the Natriuretic Hormone can be ascertained by its effect on the uptake of ^86 Rb by MDBK ([…] Bovine Kidney Cell) cultures. […]
Approximately 200,000 MDBK cells were plated in trays containing 12 […] wells, and grown for four days at 37° C. in Dulbecco's modified Eagle media (DMEM) (Gibco #430-2100), to which was added (per liter) 3.7 g sodium bicarbonate, 5 mg phenol red, 10% fetal calf serum, 10^6 units penicillin-G sulfate, 0.1 g equivalent base streptomycin sulfate, 7.34 mg polymyxin-B sulfate, and 3.4 mg fungizone and maintained in an atmosphere of 5% CO2, 95% air. […] 0.5 ml of 5% TCA was added to each well and incubated for 10 minutes at 37° C. to release radioactivity inside the cells. […] The ^86 Rb activity was counted in a scintillation counter (Beckman LS 3-801). […] Data were recorded as cpm/mg cell protein. […]

For C[C@@H]1O[C@@H](O[C@H]2C[C@@H](O)[C@]3(CO)[C@H]4[C@H](O)C[C@]5(C)[C@@H](C6=CC(=O)OC6)CC[C@]5(O)[C@@H]4CC[C@]3(O)C2)[C@H](O)[C@H](O)[C@H]1O [Ouabain], the “^86 Rb uptake, cpm/mg of protein” value (10^-5 M ouabain, positive control, run in duplicate) was 17,649 cpm/mg of protein and 15,611 cpm/mg of protein and the inhibition at 10 µM (MDBK, read-out: % inhibition of ^86 Rb uptake) was 77.7%.

Reference: patent publication US5422393A, “Natriuretic hormone” (Naturon Pharmaceutical Corporation, priority 1993, dated 1995)
